Test results: PMC9015279 (Chemmedchem, 2021)
Like-named read-outs stand apart in the source and are kept apart here.

Tests used:
[1] = biological target: T1, SARS-CoV-2 main protease (M^pro) (Severe acute respiratory syndrome coronavirus 2, UniProt P0DTD1); test: protein-observed mass spectrometry (POMS) under denaturing conditions, number of covalent reactions; assay type: binding; conditions: 40 μM compound, 2 μM M^pro, 20 mM HEPES, pH 7.5, 50 mM NaCl, covalent reactions with M^pro
[2] = biological target: T1, SARS-CoV-2 main protease (M^pro); test: biochemical; conditions: for IC50: […] substrate, pH 7.3, 15 min pre-incubation; for FRET pIC50 / apparent max. no. of reactions: ratio of FRET pIC50 to number of reactions observed by MS
[3] = biological target: T1, SARS-CoV-2 main protease (M^pro); test: biochemical
[4] = 50 nM M^pro, read-out: FRET IC50
[5] = 50 nM M^pro, read-out: FRET pIC50 (converted)
[6] = M^pro (0.3 µM) incubated 15 min with compound, TSAVLQ/SGFRK-NH2 peptide (4 µM), 10 min reaction, read-out: SPE-MS IC50
[7] = M^pro (0.3 µM) incubated 15 min with compound, TSAVLQ/SGFRK-NH2 peptide (4 µM), 10 min reaction, read-out: SPE-MS pIC50 (converted)

Compound | Apparent max. no. of reactions [1] | most dominant no. of reactions [1] | FRET pIC50 / apparent max. no. of reactions [2] | IC50 [2, 4] [nM] | IC50 [2, 5] [nM] | IC50 [3, 6] [nM] | IC50 [3, 7] [nM] | further results
O=c1c2ccccc2[se]n1-c1ccccc1 [Compound 1, ebselen, reference compound] | 12/12 | 12/12 | – | – | – | – | – | Apparent max. no. of reactions ([1]; listed as ebselen): up to 12
O=c1[nH]sc2ccccc12 [Compound 2] | 6 | 2 | 1.0 | – | – | – | – | IC50 ([2]; FRET IC50, 50 nM M^pro): 1510 ± 90 nM; IC50 [3]: 990 ± 150 nM
O=c1c2ccccc2sn1-c1ccccc1 [Compound 3a] | 11/11 | 11/11 | 0.6 | ~130 | 129 | – | – | IC50 ([3]; read-out: SPE-MS pIC50 (converted)): 339 ± 69.8 nM; Apparent max. no. of reactions ([1]; listed as 3 a): 11; most dominant no. of reactions ([1]; listed as 3 a): 11
Cc1cccc2c(=O)n(-c3ccccc3)sc12 [Compound 3b] | 1 | 0 | – | – | – | > 100000 | – | –
O=c1c2cccc(Br)c2sn1-c1ccccc1 [Compound 3c] | completely prevents irreversible covalent reaction | – | – | – | – | 10900 ± 820 | – | –
O=c1c2cccc(-c3ccccc3)c2sn1-c1ccccc1 [Compound 3d] | completely prevents irreversible covalent reaction | – | – | – | – | > 100000 | – | –
O=c1c2cc(Br)ccc2sn1-c1ccccc1 [Compound 3e] | – | 1 | 3.8 | – | 30.9 | – | 339 ± 19.9 | –
O=c1c2cnccc2sn1-c1ccccc1 [Compound 3f] | 9 | 5 | 0.7 | – | – | – | 427 | –
CC(C)CCn1sc2ccccc2c1=O [Compound 4a] | 6 | 4 | 1.1 | ~320 | 316 | – | 417 | –
Cc1cccc2c(=O)n(CCC(C)C)sc12 [Compound 4b] | 0 | – | – | – | – | > 100000 | – | –
CC(C)CCn1sc2c(Br)cccc2c1=O [Compound 4c] | completely prevents irreversible covalent reaction | – | – | – | 93300 | > 100000 | – | –
CC(C)CCn1sc2ccc(Br)cc2c1=O [Compound 4d] | 2 | 0 | 3.3 | ~210 | 209 | 430 ± 10 | 339 | most dominant no. of reactions ([1]; listed as 4 d): no reaction
O=c1c2ccccc2sn1Cc1ccccc1 [Compound 5] | 6 | 4 | 1.1 | – | 178 | 430 ± 30 | 437 | –
O=c1c2ccccc2sn1CC1CCCCC1 [Compound 6] | 6 | 4 | 1.0 | – | 933 | 530 ± 50 | – | –
CCCCCn1sc2ccccc2c1=O [Compound 7] | 5 | 4 | 1.3 | ~410 | 407 | 470 | – | –
O=c1c2ccccc2sn1-c1ccccn1 [Compound 8] | 6 | 2 | 1.1 | 220 ± 100 | 214 | 790 ± 90 | – | –
O=C1C[C@H](Cn2sc3ccccc3c2=O)CN1 [Compound 9] | – | – | 2.1 | 510 ± 20 | – | 2550 ± 570 | 2510 | –
COCCn1sc2ccccc2c1=O [Compound 10] | 5 | 2 | 1.2 | – | – | – | – | IC50 ([2]; FRET IC50, 50 nM M^pro): 950 ± 40 nM; IC50 ([2]; FRET pIC50, 50 nM M^pro): 776 nM; IC50 [3]: 780 ± 180 nM
COC(=O)CCn1sc2ccccc2c1=O [Compound 11] | 6 | 2 | 1.1 | – | 245 | – | 389 ± 49.9 | –
COC(=O)Cn1c(=O)c2ccccc2[s+]1[O-] (stereo not drawn) [Compound 12] | – | – | – | 2830 ± 340 | – | 20100 ± 1120 | – | –
